Here are results for eight compounds from ChEMBL document CHEMBL5537170, “Design, Synthesis, and Anti-Osteoporotic Characterization of Arginine N-Glycosylated Teriparatide Analogs via the Silver-catalyzed Solid-Phase Glycosylation Strategy” (J Med Chem, 2024).

The structures appear in SMILES notation. *1 amine or outer side, *2 acyl side, *3 side chain or, on linkers, in order; H or OH if unused. Where a SMILES comes first, the peptide text is derived from it. [ ]: non-standard residue; d: D form. X6 = C[C@@H]1O[C@@H](NC(=N)NCCC[C@H](N[*:1])C(=O)[*:2])[C@H](O)[C@H](O)[C@H]1O

This data set in a line: Cytotoxicity against C57BL/6 mouse Pre-Osteoblast cells assessed as cell death upto 5 uM incubated for 4 days by CCK-8 assay. It counts as toxicity, cell-based. The following applies: 96 h, time 4 day. In general terms: Tetrazolium assays rely on reduction of a dye to a coloured formazan, in cell work by metabolically active cells.
On to `CC[C@H](C)[C@H](NC(=O)[C@H](CCC(=O)O)NC(=O)[C@H](CO)NC(=O)[C@@H](NC(=O)[C@H](CO)NC(C)=O)C(C)C)C(=O)N[C@@H](CCC(N)=O)C(=O)N[C@@H](CC(C)C)C(=O)N[C@@H](CCSC)C(=O)N[C@@H](Cc1cnc[nH]1)C(=O)N[C@@H](CC(N)=O)C(=O)N[C@@H](CC(C)C)C(=O)NCC(=O)N[C@@H](CCCCN)C(=O)N[C@@H](Cc1cnc[nH]1)C(=O)N[C@@H](CC(C)C)C(=O)N[C@@H](CC(N)=O)C(=O)N[C@@H](CO)C(=O)N[C@@H](CCSC)C(=O)N[C@@H](CCC(=O)O)C(=O)N[C@@H](CCCNC(=N)N[C@@H]1O[C@H](CO)[C@@H](O[C@@H]2O[C@H](CO)[C@H](O)[C@H](O)[C@H]2O)[C@H](O)[C@H]1O)C(=O)N[C@H](C(=O)N[C@@H](CCC(=O)O)C(=O)N[C@@H](Cc1c[nH]c2ccccc12)C(=O)N[C@@H](CC(C)C)C(=O)N[C@@H](CCCNC(=N)N)C(=O)N[C@@H](CCCCN)C(=O)N[C@@H](CCCCN)C(=O)N[C@@H](CC(C)C)C(=O)N[C@@H](CCC(N)=O)C(=O)N[C@@H](CC(=O)O)C(=O)N[C@H](C(=O)N[C@@H](Cc1cnc[nH]1)C(=O)N[C@@H](CC(N)=O)C(=O)N[C@@H](Cc1ccccc1)C(N)=O)C(C)C)C(C)C`, for which the Activity result is “Non-Toxic”.

For `CC[C@H](C)[C@H](NC(=O)[C@H](CCC(=O)O)NC(=O)[C@H](CO)NC(=O)[C@@H](NC(=O)[C@H](CO)NC(C)=O)C(C)C)C(=O)N[C@@H](CCC(N)=O)C(=O)N[C@@H](CC(C)C)C(=O)N[C@@H](CCSC)C(=O)N[C@@H](Cc1cnc[nH]1)C(=O)N[C@@H](CC(N)=O)C(=O)N[C@@H](CC(C)C)C(=O)NCC(=O)N[C@@H](CCCCN)C(=O)N[C@@H](Cc1cnc[nH]1)C(=O)N[C@@H](CC(C)C)C(=O)N[C@@H](CC(N)=O)C(=O)N[C@@H](CO)C(=O)N[C@@H](CCSC)C(=O)N[C@@H](CCC(=O)O)C(=O)N[C@@H](CCCNC(=N)N)C(=O)N[C@H](C(=O)N[C@@H](CCC(=O)O)C(=O)N[C@@H](Cc1c[nH]c2ccccc12)C(=O)N[C@@H](CC(C)C)C(=O)N[C@@H](CCCNC(=N)N[C@@H]1O[C@H](CO)[C@@H](O)[C@H](O)[C@H]1NC(C)=O)C(=O)N[C@@H](CCCCN)C(=O)N[C@@H](CCCCN)C(=O)N[C@@H](CC(C)C)C(=O)N[C@@H](CCC(N)=O)C(=O)N[C@@H](CC(=O)O)C(=O)N[C@H](C(=O)N[C@@H](Cc1cnc[nH]1)C(=O)N[C@@H](CC(N)=O)C(=O)N[C@@H](Cc1ccccc1)C(N)=O)C(C)C)C(C)C`, the Activity entry is “Non-Toxic”.

On to `CC[C@H](C)[C@H](NC(=O)[C@H](CCC(=O)O)NC(=O)[C@H](CO)NC(=O)[C@@H](NC(=O)[C@H](CO)NC(C)=O)C(C)C)C(=O)N[C@@H](CCC(N)=O)C(=O)N[C@@H](CC(C)C)C(=O)N[C@@H](CCSC)C(=O)N[C@@H](Cc1cnc[nH]1)C(=O)N[C@@H](CC(N)=O)C(=O)N[C@@H](CC(C)C)C(=O)NCC(=O)N[C@@H](CCCCN)C(=O)N[C@@H](Cc1cnc[nH]1)C(=O)N[C@@H](CC(C)C)C(=O)N[C@@H](CC(N)=O)C(=O)N[C@@H](CO)C(=O)N[C@@H](CCSC)C(=O)N[C@@H](CCC(=O)O)C(=O)N[C@@H](CCCNC(=N)N[C@@H]1O[C@@H](C)[C@H](O)[C@@H](O)[C@H]1O)C(=O)N[C@H](C(=O)N[C@@H](CCC(=O)O)C(=O)N[C@@H](Cc1c[nH]c2ccccc12)C(=O)N[C@@H](CC(C)C)C(=O)N[C@@H](CCCNC(=N)N[C@@H]1O[C@@H](C)[C@H](O)[C@@H](O)[C@H]1O)C(=O)N[C@@H](CCCCN)C(=O)N[C@@H](CCCCN)C(=O)N[C@@H](CC(C)C)C(=O)N[C@@H](CCC(N)=O)C(=O)N[C@@H](CC(=O)O)C(=O)N[C@H](C(=O)N[C@@H](Cc1cnc[nH]1)C(=O)N[C@@H](CC(N)=O)C(=O)N[C@@H](Cc1ccccc1)C(N)=O)C(C)C)C(C)C` (Ac-SVSEIQLMHNLGKHLNSME[X6]VEWL[X6]KKLQDVHNF-NH2), for which the Activity result is “Non-Toxic”.

Turning to `CC[C@H](C)[C@H](NC(=O)[C@H](CCC(=O)O)NC(=O)[C@H](CO)NC(=O)[C@@H](NC(=O)[C@H](CO)NC(C)=O)C(C)C)C(=O)N[C@@H](CCC(N)=O)C(=O)N[C@@H](CC(C)C)C(=O)N[C@@H](CCSC)C(=O)N[C@@H](Cc1cnc[nH]1)C(=O)N[C@@H](CC(N)=O)C(=O)N[C@@H](CC(C)C)C(=O)NCC(=O)N[C@@H](CCCCN)C(=O)N[C@@H](Cc1cnc[nH]1)C(=O)N[C@@H](CC(C)C)C(=O)N[C@@H](CC(N)=O)C(=O)N[C@@H](CO)C(=O)N[C@@H](CCSC)C(=O)N[C@@H](CCC(=O)O)C(=O)N[C@@H](CCCNC(=N)N)C(=O)N[C@H](C(=O)N[C@@H](CCC(=O)O)C(=O)N[C@@H](Cc1c[nH]c2ccccc12)C(=O)N[C@@H](CC(C)C)C(=O)N[C@@H](CCCNC(=N)N[C@@H]1O[C@H](CO)[C@H](O)[C@H](O)[C@H]1O)C(=O)N[C@@H](CCCCN)C(=O)N[C@@H](CCCCN)C(=O)N[C@@H](CC(C)C)C(=O)N[C@@H](CCC(N)=O)C(=O)N[C@@H](CC(=O)O)C(=O)N[C@H](C(=O)N[C@@H](Cc1cnc[nH]1)C(=O)N[C@@H](CC(N)=O)C(=O)N[C@@H](Cc1ccccc1)C(N)=O)C(C)C)C(C)C`, the Activity result is given as “Non-Toxic”.

`CC[C@H](C)[C@H](NC(=O)[C@H](CCC(=O)O)NC(=O)[C@H](CO)NC(=O)[C@@H](NC(=O)[C@H](CO)NC(C)=O)C(C)C)C(=O)N[C@@H](CCC(N)=O)C(=O)N[C@@H](CC(C)C)C(=O)N[C@@H](CCSC)C(=O)N[C@@H](Cc1cnc[nH]1)C(=O)N[C@@H](CC(N)=O)C(=O)N[C@@H](CC(C)C)C(=O)NCC(=O)N[C@@H](CCCCN)C(=O)N[C@@H](Cc1cnc[nH]1)C(=O)N[C@@H](CC(C)C)C(=O)N[C@@H](CC(N)=O)C(=O)N[C@@H](CO)C(=O)N[C@@H](CCSC)C(=O)N[C@@H](CCC(=O)O)C(=O)N[C@@H](CCCNC(=N)N[C@@H]1O[C@H](CO)[C@H](O)[C@H](O)[C@H]1O)C(=O)N[C@H](C(=O)N[C@@H](CCC(=O)O)C(=O)N[C@@H](Cc1c[nH]c2ccccc12)C(=O)N[C@@H](CC(C)C)C(=O)N[C@@H](CCCNC(=N)N)C(=O)N[C@@H](CCCCN)C(=O)N[C@@H](CCCCN)C(=O)N[C@@H](CC(C)C)C(=O)N[C@@H](CCC(N)=O)C(=O)N[C@@H](CC(=O)O)C(=O)N[C@H](C(=O)N[C@@H](Cc1cnc[nH]1)C(=O)N[C@@H](CC(N)=O)C(=O)N[C@@H](Cc1ccccc1)C(N)=O)C(C)C)C(C)C`: the Activity entry is “Non-Toxic”.

With `CC[C@H](C)[C@H](NC(=O)[C@H](CCC(=O)O)NC(=O)[C@H](CO)NC(=O)[C@@H](NC(=O)[C@H](CO)NC(C)=O)C(C)C)C(=O)N[C@@H](CCC(N)=O)C(=O)N[C@@H](CC(C)C)C(=O)N[C@@H](CCSC)C(=O)N[C@@H](Cc1cnc[nH]1)C(=O)N[C@@H](CC(N)=O)C(=O)N[C@@H](CC(C)C)C(=O)NCC(=O)N[C@@H](CCCCN)C(=O)N[C@@H](Cc1cnc[nH]1)C(=O)N[C@@H](CC(C)C)C(=O)N[C@@H](CC(N)=O)C(=O)N[C@@H](CO)C(=O)N[C@@H](CCSC)C(=O)N[C@@H](CCC(=O)O)C(=O)N[C@@H](CCCNC(=N)N)C(=O)N[C@H](C(=O)N[C@@H](CCC(=O)O)C(=O)N[C@@H](Cc1c[nH]c2ccccc12)C(=O)N[C@@H](CC(C)C)C(=O)N[C@@H](CCCNC(=N)N[C@@H]1OC[C@@H](O)[C@H](O)[C@H]1O)C(=O)N[C@@H](CCCCN)C(=O)N[C@@H](CCCCN)C(=O)N[C@@H](CC(C)C)C(=O)N[C@@H](CCC(N)=O)C(=O)N[C@@H](CC(=O)O)C(=O)N[C@H](C(=O)N[C@@H](Cc1cnc[nH]1)C(=O)N[C@@H](CC(N)=O)C(=O)N[C@@H](Cc1ccccc1)C(N)=O)C(C)C)C(C)C`, the Activity result is on record as “Non-Toxic”.

As for `CC[C@H](C)[C@H](NC(=O)[C@H](CCC(=O)O)NC(=O)[C@H](CO)NC(=O)[C@@H](NC(=O)[C@H](CO)NC(C)=O)C(C)C)C(=O)N[C@@H](CCC(N)=O)C(=O)N[C@@H](CC(C)C)C(=O)N[C@@H](CCSC)C(=O)N[C@@H](Cc1cnc[nH]1)C(=O)N[C@@H](CC(N)=O)C(=O)N[C@@H](CC(C)C)C(=O)NCC(=O)N[C@@H](CCCCN)C(=O)N[C@@H](Cc1cnc[nH]1)C(=O)N[C@@H](CC(C)C)C(=O)N[C@@H](CC(N)=O)C(=O)N[C@@H](CO)C(=O)N[C@@H](CCSC)C(=O)N[C@@H](CCC(=O)O)C(=O)N[C@@H](CCCNC(=N)N)C(=O)N[C@H](C(=O)N[C@@H](CCC(=O)O)C(=O)N[C@@H](Cc1c[nH]c2ccccc12)C(=O)N[C@@H](CC(C)C)C(=O)N[C@@H](CCCNC(=N)N[C@@H]1O[C@H](CO)[C@@H](O)[C@H]1O)C(=O)N[C@@H](CCCCN)C(=O)N[C@@H](CCCCN)C(=O)N[C@@H](CC(C)C)C(=O)N[C@@H](CCC(N)=O)C(=O)N[C@@H](CC(=O)O)C(=O)N[C@H](C(=O)N[C@@H](Cc1cnc[nH]1)C(=O)N[C@@H](CC(N)=O)C(=O)N[C@@H](Cc1ccccc1)C(N)=O)C(C)C)C(C)C`, the Activity result is recorded as “Non-Toxic”.

As to `CC[C@H](C)[C@H](NC(=O)[C@H](CCC(=O)O)NC(=O)[C@H](CO)NC(=O)[C@@H](NC(=O)[C@H](CO)NC(C)=O)C(C)C)C(=O)N[C@@H](CCC(N)=O)C(=O)N[C@@H](CC(C)C)C(=O)N[C@@H](CCSC)C(=O)N[C@@H](Cc1cnc[nH]1)C(=O)N[C@@H](CC(N)=O)C(=O)N[C@@H](CC(C)C)C(=O)NCC(=O)N[C@@H](CCCCN)C(=O)N[C@@H](Cc1cnc[nH]1)C(=O)N[C@@H](CC(C)C)C(=O)N[C@@H](CC(N)=O)C(=O)N[C@@H](CO)C(=O)N[C@@H](CCSC)C(=O)N[C@@H](CCC(=O)O)C(=O)N[C@@H](CCCNC(=N)N)C(=O)N[C@H](C(=O)N[C@@H](CCC(=O)O)C(=O)N[C@@H](Cc1c[nH]c2ccccc12)C(=O)N[C@@H](CC(C)C)C(=O)N[C@@H](CCCNC(=N)N[C@@H]1O[C@@H](C)[C@H](O)[C@@H](O)[C@H]1O)C(=O)N[C@@H](CCCCN)C(=O)N[C@@H](CCCCN)C(=O)N[C@@H](CC(C)C)C(=O)N[C@@H](CCC(N)=O)C(=O)N[C@@H](CC(=O)O)C(=O)N[C@H](C(=O)N[C@@H](Cc1cnc[nH]1)C(=O)N[C@@H](CC(N)=O)C(=O)N[C@@H](Cc1ccccc1)C(N)=O)C(C)C)C(C)C`, the Activity result was “Non-Toxic”.
